These results are taken from ChEMBL document CHEMBL1932915, “Synthesis and biological evaluation of sialic acid derivatives containing a long hydrophobic chain at the anomeric position and their C-5 linked polymers as potent influenza virus inhibitors” (Bioorg Med Chem, 2012).

One may read the EC50 as the concentration that produces a half-maximal response. A high value points to weaker potency. As a reminder, the IC50 is the concentration at which inhibition is half-maximal. A higher IC50 goes with lower potency.

The structures appear in SMILES notation.

The target of one assay is Neuraminidase (Influenza A virus, UniProt B4URF0). Kind of assay: Inhibition of Avian influenza virus A/DK/HK/313/78 (H5N3) neuraminidase using 4-MU-Neu5Ac as substrate after 30 mins by fluorimetry.
Assay [1] addresses Neuraminidase (Influenza A virus (A/Puerto Rico/8/1934(H1N1)), UniProt P03468). Description: Inhibition of Human influenza virus A/PR/8/34 (H1N1) neuraminidase using 4-MU-Neu5Ac as substrate after 30 mins by fluorimetry.
Assay [2] addresses Neuraminidase (Influenza A virus (A/Aichi/2/1968(H3N2)), UniProt Q75VQ4). Kind of assay: Inhibition of Human influenza virus A/Aichi/2/68 (H3N2) neuraminidase using 4-MU-Neu5Ac as substrate after 30 mins by fluorimetry.
Assay [3] is described as follows: Inhibition of Avian influenza virus A/DK/HK/313/78 (H5N3) hemagglutininin activity in chicken erythrocytes after 1 hr. The class given is cell-based.

Neuraminidase, sequence (B4URF0 whole entry): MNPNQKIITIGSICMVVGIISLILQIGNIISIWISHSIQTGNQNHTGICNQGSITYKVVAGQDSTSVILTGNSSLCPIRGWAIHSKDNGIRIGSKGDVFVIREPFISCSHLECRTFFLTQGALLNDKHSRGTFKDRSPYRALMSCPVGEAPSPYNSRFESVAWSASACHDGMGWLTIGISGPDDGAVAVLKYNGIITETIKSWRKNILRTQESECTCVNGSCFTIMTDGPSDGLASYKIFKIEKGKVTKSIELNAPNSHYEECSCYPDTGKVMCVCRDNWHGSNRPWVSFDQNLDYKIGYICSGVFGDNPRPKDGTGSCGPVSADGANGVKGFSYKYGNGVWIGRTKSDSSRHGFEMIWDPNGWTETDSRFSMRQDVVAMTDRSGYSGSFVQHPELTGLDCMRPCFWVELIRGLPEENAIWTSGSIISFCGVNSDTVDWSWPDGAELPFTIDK
Neuraminidase (Influenza A virus (A/Aichi/2/1968(H3N2)), UniProt Q75VQ4), sequence (Q75VQ4 whole entry): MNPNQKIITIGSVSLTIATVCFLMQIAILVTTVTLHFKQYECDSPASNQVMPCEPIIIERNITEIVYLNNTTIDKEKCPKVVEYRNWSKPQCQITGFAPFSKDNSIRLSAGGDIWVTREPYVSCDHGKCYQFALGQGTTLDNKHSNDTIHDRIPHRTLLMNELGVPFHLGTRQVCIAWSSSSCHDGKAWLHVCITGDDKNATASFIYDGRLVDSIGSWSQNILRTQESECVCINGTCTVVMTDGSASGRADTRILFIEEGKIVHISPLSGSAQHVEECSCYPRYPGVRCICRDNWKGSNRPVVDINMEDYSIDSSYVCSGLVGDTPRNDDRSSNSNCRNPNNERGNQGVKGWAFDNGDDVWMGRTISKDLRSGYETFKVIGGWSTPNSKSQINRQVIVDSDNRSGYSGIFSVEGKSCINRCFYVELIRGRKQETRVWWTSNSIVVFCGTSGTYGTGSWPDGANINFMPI
Neuraminidase (Influenza A virus (A/Puerto Rico/8/1934(H1N1)), UniProt P03468), sequence (P03468 whole entry): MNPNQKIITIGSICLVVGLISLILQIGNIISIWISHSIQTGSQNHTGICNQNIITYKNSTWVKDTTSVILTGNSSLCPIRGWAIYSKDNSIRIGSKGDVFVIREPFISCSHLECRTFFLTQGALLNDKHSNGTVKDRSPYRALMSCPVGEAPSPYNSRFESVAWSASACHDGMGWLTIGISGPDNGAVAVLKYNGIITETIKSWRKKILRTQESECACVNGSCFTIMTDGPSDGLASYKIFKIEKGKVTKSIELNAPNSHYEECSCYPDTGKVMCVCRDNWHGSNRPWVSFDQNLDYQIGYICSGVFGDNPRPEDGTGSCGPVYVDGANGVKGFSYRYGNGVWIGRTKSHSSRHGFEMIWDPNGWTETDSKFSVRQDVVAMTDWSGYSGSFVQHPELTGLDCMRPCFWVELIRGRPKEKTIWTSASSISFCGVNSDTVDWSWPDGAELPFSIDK

With `C=CC(=O)NCCCCCC(=O)N[C@H]1[C@H]([C@H](O)[C@H](O)CO)O[C@@](SCCCCCCCCCCCC)(C(=O)O)C[C@@H]1O`, the values for the EC50 (at Neuraminidase; in assay [1]; in assay [2]) were 102 µM, 0.743 mM and 840 µM, respectively.
For `C=CC(=O)N[C@H]1[C@H]([C@H](O)[C@H](O)CO)O[C@@](SCCCCCCCCCCCC)(C(=O)O)C[C@@H]1O` the same measures were 533 µM, 1.35 mM and 428 µM.
`C=CC(=O)N[C@H]1[C@H]([C@H](O)[C@H](O)CO)OC(O)(C(=O)O)C[C@@H]1O` (stereo not given in full) returned an IC50 in assay [3] above 250 µM. Moreover, the EC50 on Neuraminidase was 609 µM; in assay [1], 2.48 mM; in assay [2], 1080 µM.
